One experiment has as its system CTG-0652 colorectal PDX. The experiment is described as follows: Patient-derived xenograft, tumor growth delay. Format: in vivo, NSG mice. To be noted: PDX CTG-0652 (Colorectal); every seven days, six doses; median time to 1 cm^3 vs control. As for the experimental part: (§1) Tumor fragments of 3 to 5 mm^3 at passage 3 (P3) were implanted subcutaneously in the right rear flank of NSG mice (The Jackson Laboratory) with a trochar. ABBV-399 and ABT-700 PBD were administered every seven days for a total of six doses. […] For all groups, tumor volumes were plotted only for the duration that allowed the full set of animal to remain on study. If animals had to be taken off study, the remaining animals were monitored for tumor growth until they reached defined end-points.

A further experiment has as its system CTG-0440 colorectal PDX. The experiment is described as follows: Patient-derived xenograft, tumor growth delay. Format: in vivo, NSG mice. To be noted: PDX CTG-0440 (Colorectal); every seven days, six doses; median time to 1 cm^3 vs control. As for the experimental part: as §1
The subject of another experiment is CTG-0164 NSCL PDX. Description: Patient-derived xenograft, tumor growth delay. Format: in vivo, NSG mice. The conditions noted are these: PDX CTG-0164 (NSCL); every seven days, six doses; median time to 1 cm^3 vs control. The protocol: as §1
Background: In xenograft studies the graft and the host belong to different species.

In a further experiment the test system is CTG-0382 colorectal PDX. The experiment is described as follows: Patient-derived xenograft, tumor growth delay. The class given is in vivo, NSG mice. The conditions noted are these: PDX CTG-0382 (Colorectal); every seven days, six doses; median time to 1 cm^3 vs control. As for the experimental part: as §1
A further experiment concerns CTG-0176 NSCL PDX. The experiment is described as follows: Patient-derived xenograft, tumor growth delay. Format: in vivo, NSG mice. The conditions noted are these: PDX CTG-0176 (NSCL); every seven days, six doses; median time to 1 cm^3 vs control. As for the experimental part: as §1
The next experiment has as its system CTG-0167 NSCL PDX. The experiment is described as follows: Patient-derived xenograft, tumor growth delay. Format: in vivo, NSG mice. To be noted: PDX CTG-0167 (NSCL); every seven days, six doses; median time to 1 cm^3 vs control. As for the experimental part:
as §1

A further experiment concerns CTG-0165 NSCL PDX. Description: Patient-derived xenograft, tumor growth delay. Format: in vivo, NSG mice. The conditions noted are these: PDX CTG-0165 (NSCL); every seven days, six doses; median time to 1 cm^3 vs control. The protocol: as §1
A further experiment has as its system CTG-0117 colorectal PDX. The experiment is described as follows: Patient-derived xenograft, tumor growth delay. Format: in vivo, NSG mice. To be noted: PDX CTG-0117 (Colorectal); every seven days, six doses; median time to 1 cm^3 vs control. As for the experimental part:
as §1

The next experiment deals with CTG-0358 colorectal PDX. The experiment is described as follows: Patient-derived xenograft, tumor growth delay. The class given is in vivo, NSG mice. The conditions noted are these: PDX CTG-0358 (Colorectal); every seven days, six doses; median time to 1 cm^3 vs control. As for the experimental part: as §1
The subject of another experiment is CTG-0162 NSCL PDX. The experiment is described as follows: Patient-derived xenograft, tumor growth delay. The class given is in vivo, NSG mice. To be noted: PDX CTG-0162 (NSCL); every seven days, six doses; median time to 1 cm^3 vs control. The protocol:
as §1

A further experiment concerns CTG-0178 NSCL PDX. The experiment is described as follows: Patient-derived xenograft, tumor growth delay. The class given is in vivo, NSG mice. The conditions noted are these: PDX CTG-0178 (NSCL); every seven days, six doses; median time to 1 cm^3 vs control. As for the experimental part: as §1
The test system of experiment [1] is NHBE (normal bronchial epithelial). The experiment is described as follows: Cytotoxicity assay (CellTiter-Glo, 6 days). Format: cell-based. The conditions noted are these: NHBE (bronchial epithelial) non-tumor; relative to untreated control at ≤1 μg/mL in a six day proliferation. As for the experimental part: (§2) Tumor cells were plated at 2000-5000 cells/well in 180 μL growth medium containing 10% FBS in 96-well plates, and cultured at 37° C. in a humidified incubator with 5% C02. The following day, titrations of antibodies or ADCs in 20 μL were added and cells were incubated for 6 days. Cell viability was determined using a CellTiter-Glo Luminescent Cell Viability Assay (Promega) according to the manufacturer's instructions. A non-binding, irrelevant negative control ADC conjugated to MMAE was also included in all assays to confirm that cell killing was antigen dependent.
(§3) Tumor cells were plated at 2000-5000 cells/well in 180 μL growth medium containing 10% FBS in 96-well plates, and cultured at 37° C. in a humidified incubator with 5% C02. The following day, titrations of ADCs in 20 μL were added and cells were incubated for 6 days. Cell viability was determined using a CellTiter-Glo Luminescent Cell Viability Assay (Promega) according to the manufacturer's instructions. A non-binding, irrelevant negative control ADC conjugated to MMAE was also included in all assays to confirm that cell killing was antigen-dependent.
A general note: ATP-based viability assays read luminescence as a measure of living cells.

The next experiment deals with metastatic solid tumors. Description: Phase 1 monotherapy, best response (RECIST 1.1). Format: in vivo, human. The conditions noted are these: all treated patients. An excerpt:
Three to 6 subjects will be enrolled in each cohort and dosed once every 21 (one dose per 21-day Cycle) or 14 (2 doses per 28-day Cycle) days until disease progression or unacceptable toxicity to determine the maximum tolerated dose (MTD) or maximally administered dose (MAD). Dose limiting toxicity (DLT) definitions will be used to make decisions regarding dose-escalation. […] On the dose-expansion, subjects with advanced solid tumors with cMet overexpression, MET exon 14 mutation or MET amplification will be enrolled.
Dosing began at 0.15 mg/kg and escalated to 0.3, 0.6, 1.2, 1.8, 2.4, 3.0 and 3.3 mg/kg in subsequent cohorts as tolerated. Alternative doses (intermediate or higher) or dosing schedules may be employed based on clinical safety and PK data. A dose of 2.7 mg/kg was also utilized based on the clinical safety and PK data. […] It is not administered as an intravenous push or bolus.
Baseline radiographic tumor assessments with CT (or MRI) of the head, chest, abdomen, and pelvis will be obtained no more than 28 days prior to Cycle 1 Day 1. CT scan (or MRI) will then be repeated approximately every 6 weeks after start of therapy to evaluate the extent of tumor burden. Radiographic tumor assessments will continue until disease progression documented by imaging, start of a new anti cancer therapy, death or withdrawal of consent. Response evaluation will be based on RECIST version 1.1. […]

A further experiment has as its system NCI-H441. Description: Cytotoxicity assay (CellTiter-Glo, 6 days). Format: cell-based, human. To be noted: NCI-H441 lung cancer; relative to untreated control at ≤1 μg/mL in a six day proliferation. The protocol:
as §2, §3

The values below come from patent publication US10383948B2, “Anti-cMet antibody drug conjugates and methods for their use” (AbbVie Inc., priority 2016, dated 2019).

“ABBV-399: ADC comprised of the cMet targeting antibody ABT-700 conjugated to MMAE through a valine citrulline (vc) linker”: the “TGD (%) tumor growth delay” value in the experiment on CTG-0652 colorectal PDX was 350%; in the experiment on CTG-0440 colorectal PDX, 12%; with CTG-0164 NSCL PDX it was 25%; in the experiment with CTG-0382 colorectal PDX, 126%; in the experiment on CTG-0176 NSCL PDX it was 71%; in the experiment with CTG-0167 NSCL PDX, 0%. Besides, the “TGD (%) tumor growth delay” value came out at 170% in the experiment with CTG-0165 NSCL PDX; 0% with CTG-0117 colorectal PDX; 94% in the experiment on CTG-0358 colorectal PDX; 88% in the experiment on CTG-0162 NSCL PDX; 0% in the experiment on CTG-0178 NSCL PDX. Also, the “Maximal Killing” value in experiment [1] is given as 10%; in the experiment on NCI-H441, 56%. For the same substance, in the experiment on metastatic solid tumors (17/40), the “best response: progressive disease” value is given as 42.5%. In addition, in the experiment with metastatic solid tumors (20/40), the “best response: stable disease” value came out at 50%.
